We go through three molecules from paper PMC10892984, “Novel Antineoplastic Inducers of Mitochondrial Apoptosis in Human Cancer Cells” (Molecules, 2024).

pEC50: −log10 of the molar value. A value given as a limit tells only on which side of the number the result lay.

Data set [1] has as its system EKVX. As to conditions: non-small-cell lung cancer, mutant p53, 48 h.
In a further data set the test system is HS 578T. As to conditions: 48 h; for TGI: HS 578T, breast cancer, mutant p53; for GI50 / CC50: Homo sapiens, Hs-578T; for CC50: read-out: LC50.
Another data set relates to HOP-92. The data set is classed as cell-based. Conditions: HOP-92, non-small-cell lung cancer, mutant p53, 48 h.
Data set [2] in a line: Storage stability of the solid substance (1H-NMR after storage). The data set is classed as physicochemical. As to conditions: over six years at +0–4 °C in the refrigerator. As for the experimental part:
The specimen of compound 3, which was synthesized on Saturday, 27 May 2017, was investigated using proton NMR (Figure 13) on Wednesday, 23 August 2023, after over six years of storage at +0–4 °C in the refrigerator. The specimen was newly dried over CaCl2 in vacuo for 19 h. […]

The next data set relates to RPMI-8226. Conditions: for TGI: RPMI-8226, leukemia, mutant p53, 48 h; for GI50 / CC50: Homo sapiens, RPMI-8226, 48 h; for CC50: read-out: LC50.
Another data set relates to U251. As to conditions: for GI50 / CC50: Homo sapiens, U-251, 48 h; for CC50: read-out: LC50; for TGI: U251, CNS cancer (brain tumor), mutant p53, 48 h.
In data set [3] the test system is p21^Waf1/p21^Cip1, cyclin D1, Bax. The data set can be described thus: Expression of p53-regulated protein factors in cancer cells (data not shown). The data set is classed as cell-based. Conditions: mCRPC cells, multiple myeloma U266 cells, plasmacytoma RPMI-8226 cells.
Data set [4] can be described thus: Cytotoxicity (CellTiter 96 AQueous One, MTS). Conditions: human; CCRF−CEM cells. The data set is classed as cell-based, human. As for the experimental part:
(§1) The cytotoxicity and human immunodeficiency virus type 1 (HIV-1) strain LAI replication assays were performed in freshly explanted primary human peripheral blood mononuclear cells (PBM cells) according to published procedures. The assays were conducted at least in triplicate and treated statistically (if possible). HIV-1LAI (= HIV-1BRU = LAV-1) was assayed in primary human peripheral blood lymphocyte (PBL) cells in the presence of a drug being evaluated. The parameter for antiviral activity was a reduction in reverse transcriptase (RT) activity in the cell supernatant after Triton X–100-mediated lysis of released virions, as measured using [5α-^3H]dTTP (5α-tritiated thymidine 5′-triphosphate) incorporation into poly(rA)•poly(dT) directed by the primed RNA template poly(rA)•oligo(dT). […] The detailed assay methodology was reported by Schinazi et al. as based on an older assay system of Spira et al.. The experiments were conducted in triplicate and treated statistically using regression curve analysis (r^2 coefficient of determination). The RT inhibitor AZT (zidovudine, 3′-azido-3′-deoxythymidine; RETROVIR™) served as a positive control. Cytotoxicity on PBL and the other cells (CCRF−CEM, Vero) exerted by the test compounds was determined as described by Stuyver et al. by application of the CellTiter 96® AQueous One Solution Cell Proliferation Assay (Promega Corp., Madison, WI, USA). Briefly, the phenazine ethosulfate (PES)-coupled reduction of the tetrazolium salt 3-(4,5-dimethylthiazol-2-yl)-5-(3-carboxymethoxyphenyl)-2-(4-sulfophenyl)-2H-tetrazolium (MTS) to a purple, water-soluble formazan by living, undamaged cells was measured.

In another data set the test system is CCRF−CEM cells. Put plainly: Cytotoxicity (CellTiter 96 AQueous One, MTS). The class given is cell-based, human. Conditions: Homo sapiens, 1.0 µM, read-out: CCRF–CEM growth inhibition at fixed 1.0 µM concentration. As for the experimental part:
as §1

Another data set has as its system SR. As to conditions: for GI50 / CC50: Homo sapiens, 48 h; for CC50: read-out: LC50; for TGI: leukemia, wild-type p53, 48 h.
A short description of data set [5]: Cytotoxicity (CellTiter 96 AQueous One, MTS). Conditions: African green monkey (Chlorocebus aethiops), Vero cells. The class given is cell-based, African green monkey (grivet) Chlorocebus aethiops. As to the method:
The cytotoxicity and human immunodeficiency virus type 1 (HIV-1) strain LAI replication assays were performed in freshly explanted primary human peripheral blood mononuclear cells (PBM cells) according to published procedures. The assays were conducted at least in triplicate and treated statistically (if possible). HIV-1LAI (= HIV-1BRU = LAV-1) was assayed in primary human peripheral blood lymphocyte (PBL) cells in the presence of a drug being evaluated. The parameter for antiviral activity was a reduction in reverse transcriptase (RT) activity in the cell supernatant after Triton X–100-mediated lysis of released virions, as measured using [5α-^3H]dTTP (5α-tritiated thymidine 5′-triphosphate) incorporation into poly(rA)•poly(dT) directed by the primed RNA template poly(rA)•oligo(dT). […] Cytotoxicity on PBL and the other cells (CCRF−CEM, Vero) exerted by the test compounds was determined as described by Stuyver et al. by application of the CellTiter 96® AQueous One Solution Cell Proliferation Assay (Promega Corp., Madison, WI, USA). Briefly, the phenazine ethosulfate (PES)-coupled reduction of the tetrazolium salt 3-(4,5-dimethylthiazol-2-yl)-5-(3-carboxymethoxyphenyl)-2-(4-sulfophenyl)-2H-tetrazolium (MTS) to a purple, water-soluble formazan by living, undamaged cells was measured.

The test system of a further data set is K-562. Conditions: for GI50 / CC50: Homo sapiens, K562, 48 h; for CC50: read-out: LC50; for TGI: K-562, leukemia, mutant p53, 48 h.
A further data set concerns HIV-1LAI. The data set can be described thus: HIV-1LAI replication reverse transcriptase assay in primary PBM cells. The class given is cell-based, human immunodeficiency virus type 1. As to the method:
as §1

Data set [6] concerns EKVX. Put plainly: cells. Conditions: Homo sapiens, 48 h, read-out: LC50.

What is called TGI is the concentration giving total growth inhibition. Consider `COc1cc2c(c(OC)c1OC)-c1ccc(NNC(=S)N(Cc3cccc(C[N+](Cc4cccc(CNC56CC7CC(CC(C7)C5)C6)c4)(Cc4cccc(CNC56CC7CC(CC(C7)C5)C6)c4)Cc4cccc(CN(C(=S)NNc5ccc6c(cc5=O)C(NC(C)=O)CCc5cc(OC)c(OC)c(OC)c5-6)C56CC7CC(CC(C7)C5)C6)c4)c3)C34CC5CC(CC(C5)C3)C4)c(=O)cc1C(NC(C)=O)CC2` [Compound 3, [(bis{3-[(tricyclo[3.3.1.1^3,7]decan-1-ylamino)methyl]benzyl}ammonio)bis(methanediylbenzene-3,1-diylmethanediyl)]di-2-[(aS,7S)-7-(acetylamino)-1,2,3-trimethoxy-9-oxo-5,6,7,9-tetrahydrobenzo[a]heptalen-10-yl]-N-(tricyclo[3.3.1.1^3,7]decan-1-yl)hydrazinecarbothioamide chloride pentahydrate], for which the concentration for total growth inhibition (TGI) in the data set on EKVX [1] worked out at 8.46 µM; in the data set on HS 578T, 6.76 µM; in the data set with HOP-92, 4.08 µM; in the data set with RPMI-8226, 1.76 µM. Also, the “stability on storage (1H-NMR)” value in data set [2] is on record as “very pure even after six years storage”.

The term GI50 denotes the concentration giving 50% growth inhibition. Broadly, the pEC50 is the negative decadic logarithm of the EC50, by convention in mol/L. As usually defined, the EC90 is the concentration needed for an effect of 90%. On to `c1cc(CNC23CC4CC(CC(C4)C2)C3)cc(C[N+](Cc2cccc(CNC34CC5CC(CC(C5)C3)C4)c2)(Cc2cccc(CNC34CC5CC(CC(C5)C3)C4)c2)Cc2cccc(CNC34CC5CC(CC(C5)C3)C4)c2)c1` (stereo not shown) [Compound 1, tetrakis{3-[(tricyclo[3.3.1.1^3,7]decan-1-ammonio)methyl]benzyl}ammonium pentachloride], for which the GI50 in the data set on U251 was determined as 1.12 µM; in the data set with HS 578T, 1.92 µM; in the data set with HOP-92 (Homo sapiens) it was 1.14 µM; in the data set on SR, 1.49 µM; in the data set on K-562, 1.46 µM; with RPMI-8226, 1.32 µM. Further, the CC50 is 8.79 µM in the data set on U251; less than 1 µM in data set [4]; more than 50 µM in the data set on HS 578T; 12.6 µM with HOP-92 (Homo sapiens, read-out: LC50 (the source's name)); more than 50 µM in the data set with SR; 1.8 µM in [5]. Besides, the CC50 with K-562 and in the data set on RPMI-8226 was more than 50 µM in each case. Also, the concentration for total growth inhibition (TGI) is reported as 2.69 µM in the data set with U251; 11.8 µM with HS 578T; 3.06 µM with HOP-92; more than 50 µM in the data set on SR; 36.2 µM in the data set on K-562; 3.99 µM in the data set on RPMI-8226. Besides, the “cyclin D1 protein factor” value in [3] is reported as “downregulated”. For the same molecule, the “expression of cyclin-dependent kinase inhibitor p21^Waf1/p21^Cip1” value in [3] is listed as “induced the expression”. For the same molecule, the “pro-apoptotic factor Bax expression” value in data set [3] was “increased”. Also, the inhibition at 1 µM in the data set on CCRF−CEM cells came to 60%. For the same molecule, the pEC50 in the data set with HIV-1LAI (Human immunodeficiency virus 1, PBMC, primary human PBM cells, reverse transcriptase activity in supernatant, read-out: Anti-HIV-1LAI activity EC50) was 6.25. Moreover, the concentration for an effect of 90% (EC90) in the data set with HIV-1LAI (Human immunodeficiency virus 1, PBMC, primary human PBM cells, reverse transcriptase activity in supernatant, read-out: Anti-HIV-1LAI activity EC90) worked out at 4.3 µM. Also, the “SI50, selectivity index CC50/EC50” value with HIV-1LAI (PBM cells) is on record as 3.9.

`COc1cc2c(c(OC)c1OC)-c1ccc(NNC(N)=S)c(=O)cc1C(NC(C)=O)CC2` [Compound 2, N-[(aS,7S)-10-(2-carbamothioylhydrazinyl)-1,2,3-trimethoxy-9-oxo-5,6,7,9-tetrahydrobenzo[a]heptalen-7-yl]acetamide monohydrate × ⅔ (ethyl acetate)]: the GI50 is 0.479 µM in the data set with U251; more than 100 µM in the data set on HS 578T; 0.279 µM with SR; 0.362 µM in the data set with K-562; 0.349 µM in the data set on RPMI-8226. Further, the CC50 with U251, in the data set with HS 578T, in the data set with EKVX [6], in the data set on SR, with K-562 and in the data set on RPMI-8226 was more than 100 µM in each case. Also, the concentration for total growth inhibition (TGI) with U251 was more than 100 µM; in the data set with EKVX [1], more than 100 µM; in the data set on HS 578T it was more than 100 µM; in the data set with SR, more than 100 µM; in the data set with K-562, more than 100 µM; with RPMI-8226, 8.65 µM.
